Data on one compound can be found in paper PMC12444472, “BCI inhibits MKP3 by targeting the kinase-binding domain and disrupting ERK2 interaction” (The Journal of Biological Chemistry, 2025).

The target in one experiment is T1, MKP3 T87G (Homo sapiens, UniProt Q16828, T87G).
T1 construct: MKP3(1–381) (MKP3^FL); made in house; host or cells: Escherichia coli BL21(DE3)
T1 sequence (Q16828 1-381 T87G): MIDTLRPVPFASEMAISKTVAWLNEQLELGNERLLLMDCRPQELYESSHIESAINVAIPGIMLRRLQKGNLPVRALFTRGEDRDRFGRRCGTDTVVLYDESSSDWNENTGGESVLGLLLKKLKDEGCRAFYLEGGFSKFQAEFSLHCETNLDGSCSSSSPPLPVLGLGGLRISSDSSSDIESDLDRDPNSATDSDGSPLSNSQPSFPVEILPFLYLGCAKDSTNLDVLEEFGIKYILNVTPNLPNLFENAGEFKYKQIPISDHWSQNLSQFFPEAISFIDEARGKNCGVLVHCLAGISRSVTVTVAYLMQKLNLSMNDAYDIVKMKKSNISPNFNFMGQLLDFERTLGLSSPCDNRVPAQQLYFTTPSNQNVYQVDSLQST
The experiment can be described thus: MST affinity of MKP3 mutant. The format is binding. To be noted: full-length mutant. As to the method:
MST measurements were performed using fluorescently labeled proteins and the inhibitor BCI (CAS: 1245792-51-1; TargetMol) on a Monolith instrument (NanoTemper Technologies). The RED–Tris–NTA second-generation dye was dissolved in MST buffer (20 mM Hepes, pH 7.4, 200 mM NaCl, and 0.05% Tween-20) to prepare a 5 μM stock solution. Fluorescent labeling of MKP proteins followed the standard protocol of the MO-L018 RED–Tris–NTA protein labeling kit, leveraging the His-tag–dye interaction.
The BCI compound was prepared as a 600 to 750 μM stock solution in MST buffer with 10% DMSO to enhance solubility, followed by a 16-point serial dilution. The diluted BCI solutions were thoroughly mixed with labeled MKP proteins (50 nM) at a 1:1 volume ratio, yielding a final volume of 10 μl. The reaction mixtures were incubated in the dark for 10 min at room temperature before being loaded into standard glass capillaries. Measurements were carried out on the Monolith instrument (100% LED, 40% IR laser power) with a 20 s laser on time. The normalized fluorescence values from triplicate measurements were averaged at each concentration and fitted to a 1:1 binding model using the KD model in MO.Affinity software (v3.0.5, NanoTemper Technologies) to determine the binding affinities between MKP proteins and the BCI inhibitor. The final reported Kd value represents the mean ± SD of Kd values obtained from three independent experiments, each fitted separately.
Figure S3. Affinity measurements of MKP3 mutants with BCI by MST. The binding affinities of full-length MKP3 mutants (E81G, R83G, R85G, R87G, and R89A) to BCI were determined by MST and are presented as mean ± SD (n = 3). Wild-type MKP3 (MKP3^WT) was included as a reference.

In a further experiment the target is T2, MKP3^KBD (Homo sapiens, UniProt Q16828).
T2 construct: MKP3(1–154) (MKP3^KBD); made in house; host or cells: Escherichia coli BL21(DE3)
T2 sequence (Q16828 1-154): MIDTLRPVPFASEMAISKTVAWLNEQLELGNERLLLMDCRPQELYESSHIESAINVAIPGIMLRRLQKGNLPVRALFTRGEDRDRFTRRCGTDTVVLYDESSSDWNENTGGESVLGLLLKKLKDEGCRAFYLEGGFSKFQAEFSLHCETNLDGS
Nature of the experiment: NMR titration (1H-15N HSQC). The format is binding. To be noted: 15N-labeled MKP3^KBD titrated with BCI, analysed at 1:4 M ratio. As to the method:
NMR data were collected at 298 K on a Bruker AVANCE NEO 800 MHz spectrometer (Bruker BioSpin) equipped with a ^1H&^19F/^13C/^15N TCI cryogenic probe. Backbone resonances of MKP3^1–154 were assigned using 2D/3D experiments, including 2D ^1H–^15N HSQC and 3D ^1H/^13C/^15N CBCA(CO)NH, HNCACB, HNCO, and HN(CA)CO, performed with uniformly ^13C/^15N labeled protein at a final concentration of 0.39 mM in buffer containing 20 mM imidazole (pH 6.0), 100 mM NaCl, 5 mM DTT, 0.5 mM EDTA, and 5% (v/v) D2O. The buffer used for backbone resonance assignment was similar to that used for the previously reported NMR structure ([15]). NMR titration experiments were conducted using ^15N-labeled MKP3^1–154, MKP3^14–152, MKP3^204–350, MKP1^1–141, MKP2^5–159, MKPX^1–140, MKP4^1–143, and MKP5^139–287. 2D ^1H–^15N HSQC spectra of ^15N-labeled MKPs^KBD (0.1 mM) were acquired in the absence and presence of BCI (50 mM stock in DMSO-d6) in buffer containing 50 mM KH2PO4–K2HPO4 (pH 7.2), 100 mM KCl, 1 mM Tris(2-carboxyethyl)phosphine hydrochloride, 1 mM EDTA, and 5% (v/v) D2O. Control experiments, in which only the corresponding volume of DMSO-d6 was added to ^15N-labeled proteins, were performed to exclude possible effects of DMSO on the interactions. For ^15N T1 measurements, the relaxation delay times were set to 20 (×2), 100, 200 (×2), 300, 400, 600 (×2), 800, 1200, and 1600 ms. For ^15N T2 measurements, the delay times were 7.84, 15.68 (×2), 23.52, 31.36 (×2), 39.2, 47.04 (×2), 54.88, 62.72, 78.4, 94.08, and 109.76 ms. The relaxation rates R1 (1/T1) and R2 (1/T2) for each residue were determined by fitting the peak intensities from spectra acquired at the various delay times to a single-exponential decay function: I/I0 = exp(-R1,2·t), where I0 is the intensity at t = 0, and I is the intensity at a delay time t. Repeated measurements were used to estimate the uncertainties of the R1 and R2 values via Monte Carlo analysis. Heteronuclear steady-state ^1H–^15N NOE experiments were acquired in an interleaved mode, with 5 s of ^1H saturation for NOE build-up and 5 s of relaxation delay for the reference spectra. Repeated experiments were performed to estimate uncertainties, and the propagated error for each NOE value was calculated using the following equation: σNOE = NOE × ((σsat/Isat)^2+(σunsat/Iunsat)^2)^1/2, where σsat and σunsat are the SDs of the saturated and unsaturated spectra, respectively, and Isat and Iunsat are the corresponding signal intensities. NMR data were processed using TopSpin 4.1.1 (Bruker BioSpin) or NMRPipe ([54]) and analyzed with POKY ([55]).

As for `O=C1/C(=C/c2ccccc2)C(NC2CCCCC2)c2ccccc21` (centres unmarked) [BCI, (E)-2-benzylidene-3-(cyclohexylamino)-2,3-dihydro-1H-inden-1-one], the “affinity for BCI compared with MKP3^WT” value on MKP3 T87G is “affinities similar to the WT”. Further, the “perturbation of NMR spectrum” value on MKP3^KBD is listed as “significant peak broadening”.
